One assay deals with fungi. The assay is described as follows: Agar growth media plates left open to the atmosphere for 6 hours (disinfectant efficacy), fungi. The format is cell-based. To be noted: copper sulphate at 5%; plates open 6 hours. As to the method:
(§1) 1. The Unformulated composition containing 5 weight percent of copper sulphate in an inert carrier was added directly to growth media, namely, Agar, in order to evaluate it's efficacy as a disinfectant. 2. The same solution was added to bacteria and its growth was monitored by optical density readings as a function of time. 3. The same solution alone or in combination with a detergent was added to bacteria or fungi and incubated for 10 minutes or 60 minutes and the incubation mix was plated on to agar growth media in order to estimate survival.
(§2) a. The Unformulated composition at different concentrations was added to live bacterial agar media and the agar plates were exposed to the atmosphere by keeping the Petri plates open to the atmosphere for 6 hours. By doing this it was expected to allow aerial bacteria to grow in the plates.
(§3) Control plates without the Unformulated composition contained confluent colonies of bacteria (infinite) and fungi.

For the next assay, the system named is Anopheles mosquitoes. The assay is described as follows: Anopheles mosquito larvae survivorship on exposure to copper. The format is in vivo. The text has this: A solution in water of copper sulphate pentahydrate at 5 weight percent was used to treat Anopheles mosquitoes. The mosquitoes were wild caught and they were not separated by larval stage so there is some variability in the response to the test. The data is based upon 1000 larvae per treatment. Amounts of copper were used at 0.37 ppm, 0.88 ppm, 1.47 ppm, and 8.4 ppm. […] The Y-axis is the percentage of survivorship and the X-axis is the number of days of exposure.
The tests were repeated wherein a copper compound in inert carrier was treated with a detergent as an additive to determine if the additive increased the efficacy of the copper. […] The first control is FIG. 2, Stage 1 larvae, the duplicate control, Stage 1 larvae, is FIG. 3 wherein, in both Figures, the Y-axis is the percentage of survivorship and the X-axis is the number of days of exposure.
Kathon was added at 0.02 weight percent. […] The Y-axis is the percentage of survivorship and the X-axis is the number of days of exposure.
The copper was used at the 0.25 ppm level. […] The Y-axis is the percentage of survivorship and the X-axis is the number of days of exposure.

In another assay the test system is aerial bacteria. Put plainly: Agar growth media plates left open to the atmosphere for 6 hours (disinfectant efficacy), bacteria. The note with it: copper sulphate at 5%; plates open 6 hours. The format is cell-based. As for the experimental part: as §1, §2, §3
The test system of the next assay is E. Coli bacteria. The assay is described as follows: Incubation for 10 or 60 minutes, then plating on agar to estimate survival, bacteria. The format is cell-based. To be noted: detergent alone. As for the experimental part:
Three different types of experiments were conducted in order to assess the efficacy of an inventive solution on E. Coli bacteria and fungi.
as §1
c. Bacteria with the Unformulated composition was incubated for 10 minutes or 60 minutes before plating them. […] Because of the closeness of the data points, the inventors herein would point out that the top line is the control, the next set of lines lower are constituted of 0.1, 0.2, 0.3, 0.4, 0.5 of ET and 1 ml Matrix, while the bottom set of lines are constituted of 2 ml Matrix, 3 ml Matrix, 3 ml Matrix, 4 ml Matrix, and 5 ml of Matrix.
4. The effect of adding detergents, that is, sodium dodecyl sulfate to the Unformulated composition.
The detergent alone allowed growth up to a concentration of 0.2%. […]

Each structure is given as a SMILES string.

With `O.O.O.O.O.O=S(=O)([O-])[O-].[Cu+2]` [copper sulphate pentahydrate], the “fungal growth on plates” value in the assay with fungi is reported as “allowed no fungal growth”. For the same molecule, the survivorship in the assay on Anopheles mosquitoes (0.37 ppm copper, wild caught larvae not separated by larval stage, 1000 larvae per treatment) is on record as ~100%. In addition, in the assay on Anopheles mosquitoes (copper, first part of the experiment, no detergent), the no-effect dose is 0.37 ppm. Also, in the assay on Anopheles mosquitoes (more than 0.8 ppm copper (0.88, 1.47, 8.4 ppm tested), by day 3, wild caught larvae), the death of larvae entry was “died by day 3”. For the same molecule, the “bacterial growth on plates” value in the assay on aerial bacteria is reported as “allowed bacterial growth”.
`CCCCCCCCCCCCOS(=O)(=O)[O-].[Na+]` [sodium dodecyl sulfate]: the “concentration at which bacterial growth was still allowed” value in the assay on E. Coli bacteria was ≤ 0.2%.

The values above are taken from patent publication US20100189813A1, “Cidal formulations and methods of use” (priority 2006, published 2010).
